# Reference: US20160249841A1, “[…] ELECTROENCEPHALOGRAPHIC OSCILLATIONS” (Galenea Corp., priority 2012, published 2016)
# Columns and labels:
# [1] = tested on: Coloboma mice; conditions: low doses; cited from earlier work
# [2] = tested on: wild-type mice; experiment: EEG time-frequency maps of mean power during onset of exploratory activity, wild-type mice treated with PCP; format: in vivo, mouse; conditions: wild-type mice treated with PCP versus untreated, FIG. 10
# From the text: Time-frequency maps were produced of mean power for untreated wild-type mice and mice treated with PCP. A signature in EEG oscillations observed in untreated mice was absent following treatment with PCP. This signature was characterized by peaks in early beta (20-30 Hz) activity, gammaLow (30-40 Hz) and gammaHi (80-100) Hz activity.
# [3] = tested on: CNhetKO mice; experiment: EEG oscillations in PFC during onset of exploratory activity in novel object recognition task, CNhetKO mice; format: in vivo, mouse; conditions: 5 mg/kg subcutaneously
# From the text: Alterations in electroencephalographic oscillations (e.g., shifts in power) recorded from the prefrontal cortex (PFC) of mice could result from engagement of executive functions necessary for attending to and actively exploring a new environment; processes unrelated to executive function may also be involved. An integrated system was set up that combined automated real-time behavioral analysis (Topscan, CleverSys, Inc., Reston, Va.) together with multichannel electrophysiology equipment (MC_Rack, MultiChannel Systems, GmbH, Reutlingen, Germany) to analyze PFC activity during different phases of a novel object recognition (NOR) task in mice that were well habituated to the test apparatus.
# EEGs were recorded from control and calcineurin heterozygous knock-out (CNhetKO) subjects during performance of a novel-object recognition task. […] During each phase, the behavior of each subject was monitored in real time and synchronized to recorded EEG oscillations (Topscan, CleverSys Inc.). […]
# The area under the curve was computed from spectrograms to quantify power in different frequency bands [Theta (4-12 Hz) and GammaHI (65-90 Hz)] of the EEG oscillations. […]
# The effects of D4 agonist PD168077 on the EEG oscillations observed during onset of the exploratory activity in CNhetKO mice were evaluated. […] Time-frequency maps of baseline conditions (no D4 agonist) and treatment conditions were evaluated.
# [4] = tested on: CNhetKO mice; experiment: Novel object recognition task performance, CNhetKO mice; format: in vivo, mouse
# Protocol: EEGs were recorded from control and calcineurin heterozygous knock-out (CNhetKO) subjects during performance of a novel-object recognition task. Control and CNhetKO mice were exposed to two identical objects during a 10 min sample phase. After a 24 hour delay period, subjects were exposed to a familiar object and a novel object. During each phase, the behavior of each subject was monitored in real time and synchronized to recorded EEG oscillations (Topscan, CleverSys Inc.). As depicted in FIG. 4, an exploratory activity occurred when a subject's nose was orientated towards an object and was within a 2 cm radius surrounding the object for at least 200 msec, while the subject's center of mass (‘*’) was outside of 2 cm radius. […]
# The effects of D4 agonist PD168077 on the EEG oscillations observed during onset of the exploratory activity in CNhetKO mice were evaluated. CNhetKO subjects were treated with PD 168077 (5 mg/kg) subcutaneously and EEG oscillations associated with exploratory activity in a novel object recognition task were analyzed. Exploratory activity in the presence of novel objects and familiar objects was analyzed for up to 90 min post-injection. Time-frequency maps of baseline conditions (no D4 agonist) and treatment conditions were evaluated.
smiles,measurement,setting,value
C[C@H](N)Cc1ccccc1 [D-amphetamine],Hyperkinesis,[1],ameliorated
"c1ccc(C2(N3CCCCC3)CCCCC2)cc1 [PCP, Phencyclidine]","Signature in EEG oscillations (peaks in early beta 20-30 Hz, gammaLow 30-40 Hz, gammaHi 80-100 Hz)",[2],absent
Cc1cccc(C(=O)NCN2CCN(c3ccccc3C#N)CC2)c1 [PD 168077],Signature of EEG oscillation observed during onset of the exploratory activity (time-frequency maps),"[3]; CNhetKO mice, up to 90 min post-injection, versus baseline (no D4 agonist)",restored the signature of EEG oscillation
same,Gamma responses (GammaHi 65-90 Hz EEG power) in PFC elicited by object exploration,"[3]; CNhetKO subjects, analyzed up to 90 min post-injection, FIG. 6",transiently restored normal Gamma responses
same,Time spent exploring novel objects versus familiar objects,"[4]; CNhetKO mice, versus cyclodextrin control, FIG. 8B",significantly more time exploring novel objects compared with familiar objects
same,Performance in the novel object recognition cognitive paradigm,"[4]; CNhetKO subjects, 5 mg/kg s.c. 30 min prior to familiarization phase and again 30 min prior to test phase after 24 hr",essentially completely restored performance
